From the supplement of paper PMC9663587

What was measured:
[1] = compound: CC(=O)c1c(C)c2cnc(Nc3ccc(N4CCNCC4)cn3)nc2n(C2CCCC2)c1=O; experiment: GR value, 72 h; higher = faster growth (1 = untreated, <0 = killing);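 further: breast cancer and non-malignant breast epithelial lines, nine half-log doses, viable cells counted by Hoechst and LIVE/DEAD dye imaging versus time-zero plates and DMSO controls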
THZ531 = compound: CN(C)C/C=C/C(=O)Nc1ccc(C(=O)N2CCC[C@@H](Nc3ncc(Cl)c(-c4c[nH]c5ccccc45)n3)C2)cc1 [THZ531]; experiment: as above
THZ1 [2] = compound: T1, CN(C)C/C=C/C(=O)Nc1ccc(C(=O)Nc2cccc(Nc3ncc(Cl)c(-c4c[nH]c5ccccc45)n3)c2)cc1 [THZ1]; experiment: as above
Flavopiridol [3] = compound: T2, CN1CC[C@H](c2c(O)cc(O)c3c(=O)cc(-c4ccccc4Cl)oc23)[C@H](O)C1 [Flavopiridol]; experiment: as above
Neratinib/HKI272 = compound: CCOc1cc2ncc(C#N)c(Nc3ccc(OCc4ccccn4)c(Cl)c3)c2cc1NC(=O)/C=C/CN(C)C [Neratinib/HKI272]; experiment: increase in dead-cell fraction, 72 h; higher = more death;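 further: breast cancer cell lines in 384-well plates, stained with Hoechst plus LIVE/DEAD far red dye and imaged, cells above an LDR intensity threshold counted dead, Hoechst-negative corpses included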
BSJ-03-123 = compound: CC(=O)c1c(C)c2cnc(Nc3ccc(N4CCN(CCOCCOCCOCCNC(=O)COc5cccc6c5C(=O)N(C5CCC(=O)NC5=O)C6=O)CC4)cn3)nc2n(C2CCCC2)c1=O [BSJ-03-123]; experiment: as above
[4] = compound: CC(=O)c1c(C)c2cnc(Nc3ccc(N4CCNCC4)cn3)nc2n(C2CCCC2)c1=O; experiment: as above
[5] = compound: CCN1CCN(Cc2ccc(Nc3ncc(F)c(-c4cc(F)c5nc(C)n(C(C)C)c5c4)n3)nc2)CC1; experiment: as above
THZ1 [6] = compound: T1, THZ1; experiment: as above
LEE011/Ribociclib = compound: CN(C)C(=O)c1cc2cnc(Nc3ccc(N4CCNCC4)cn3)nc2n1C1CCCC1 [LEE011/Ribociclib]; experiment: as above
[7] = compound: CCc1cnn2c(NCc3ccc[n+]([O-])c3)cc(N3CCCC[C@H]3CCO)nc12; experiment: as above
Flavopiridol [8] = compound: T2, Flavopiridol; experiment: as above

SUM190PT
GR value ([1]; 0.0003162 µM): 0.986 GR | GR value ([1]; 0.001 µM): 1.02 GR | GR value ([1]; 0.003162 µM): 1.09 GR | GR value ([1]; 0.01 µM): 0.949 GR | GR value ([1]; 0.03162 µM): 0.62 GR | GR value ([1]; 0.1 µM): 0.316 GR | GR value ([1]; 0.3162 µM): 0.35 GR | GR value ([1]; 1 µM): 0.336 GR | GR value ([1]; 3.162 µM): 0.378 GR | GR value (THZ531; 0.0001 µM): 1.07 GR | GR value (THZ531; 0.0003162 µM): 0.955 GR | GR value (THZ531; 0.001 µM): 0.949 GR | GR value (THZ531; 0.003162 µM): 0.966 GR | GR value (THZ531; 0.01 µM): 1.12 GR | GR value (THZ531; 0.03162 µM): 0.889 GR | GR value (THZ531; 0.1 µM): -0.322 GR | GR value (THZ531; 0.3162 µM): -0.725 GR | GR value (THZ531; 1 µM): -0.492 GR | GR value (THZ1 [2]; 0.0001 µM): 1.05 GR | GR value (THZ1 [2]; 0.0003162 µM): 0.839 GR | GR value (THZ1 [2]; 0.001 µM): 0.923 GR | GR value (THZ1 [2]; 0.003162 µM): 0.842 GR | GR value (THZ1 [2]; 0.01 µM): 0.0733 GR | GR value (THZ1 [2]; 0.03162 µM): -0.46 GR | GR value (THZ1 [2]; 0.1 µM): -0.462 GR | GR value (THZ1 [2]; 0.3162 µM): -0.331 GR | GR value (THZ1 [2]; 1 µM): -0.467 GR | GR value (Flavopiridol [3]; 0.0001 µM): 0.999 GR | GR value (Flavopiridol [3]; 0.0003162 µM): 1.06 GR | GR value (Flavopiridol [3]; 0.001 µM): 0.935 GR | GR value (Flavopiridol [3]; 0.003162 µM): 0.883 GR | GR value (Flavopiridol [3]; 0.01 µM): 0.661 GR | GR value (Flavopiridol [3]; 0.03162 µM): 0.785 GR | GR value (Flavopiridol [3]; 0.1 µM): 0.58 GR | GR value (Flavopiridol [3]; 0.3162 µM): 0.0012 GR | GR value (Flavopiridol [3]; 1 µM): -0.382 GR | increase in dead-cell fraction (Neratinib/HKI272; 0.0003162 µM): -0.0031 | increase in dead-cell fraction (Neratinib/HKI272; 0.001 µM): -0.0024 | increase in dead-cell fraction (Neratinib/HKI272; 0.003162 µM): -0.0097 | increase in dead-cell fraction (Neratinib/HKI272; 0.01 µM): 0.0037 | increase in dead-cell fraction (Neratinib/HKI272; 0.03162 µM): -0.0082 | increase in dead-cell fraction (Neratinib/HKI272; 0.1 µM): 0.0008 | increase in dead-cell fraction (Neratinib/HKI272; 0.3162 µM): 0.0036 | increase in dead-cell fraction (Neratinib/HKI272; 1 µM): 0.0415 | increase in dead-cell fraction (Neratinib/HKI272; 3.162 µM): 0.0395 | increase in dead-cell fraction (BSJ-03-123; 0.001 µM): 0.0016 | increase in dead-cell fraction (BSJ-03-123; 0.003162 µM): -0.0004 | increase in dead-cell fraction (BSJ-03-123; 0.01 µM): 0.0082 | increase in dead-cell fraction (BSJ-03-123; 0.03162 µM): 0.018 | increase in dead-cell fraction (BSJ-03-123; 0.1 µM): 0.0114 | increase in dead-cell fraction (BSJ-03-123; 0.3162 µM): 0.0142 | increase in dead-cell fraction (BSJ-03-123; 1 µM): 0.0139 | increase in dead-cell fraction (BSJ-03-123; 3.162 µM): 0.0169 | increase in dead-cell fraction (BSJ-03-123; 10 µM): 0.243 | increase in dead-cell fraction ([4]; 0.0003162 µM): -0.0078 | increase in dead-cell fraction ([4]; 0.001 µM): -0.0072 | increase in dead-cell fraction ([4]; 0.003162 µM): -0.0095 | increase in dead-cell fraction ([4]; 0.01 µM): 0.0012 | increase in dead-cell fraction ([4]; 0.03162 µM): -0.0013 | increase in dead-cell fraction ([4]; 0.1 µM): 0.0119 | increase in dead-cell fraction ([4]; 0.3162 µM): 0.0131 | increase in dead-cell fraction ([4]; 1 µM): 0.0095 | increase in dead-cell fraction ([4]; 3.162 µM): 0.0058 | increase in dead-cell fraction ([5]; 0.001 µM): 0.001 | increase in dead-cell fraction ([5]; 0.003162 µM): 0.0059 | increase in dead-cell fraction ([5]; 0.01 µM): 0.0009 | increase in dead-cell fraction ([5]; 0.03162 µM): 0.0041 | increase in dead-cell fraction ([5]; 0.1 µM): 0.0078 | increase in dead-cell fraction ([5]; 0.3162 µM): 0.0015 | increase in dead-cell fraction ([5]; 1 µM): -0.0004 | increase in dead-cell fraction ([5]; 3.162 µM): 0.0076 | increase in dead-cell fraction ([5]; 10 µM): 0.32 | increase in dead-cell fraction (THZ1 [6]; 0.0001 µM): -0.0051 | increase in dead-cell fraction (THZ1 [6]; 0.0003162 µM): -0.0051 | increase in dead-cell fraction (THZ1 [6]; 0.001 µM): -0.003 | increase in dead-cell fraction (THZ1 [6]; 0.003162 µM): 0.0428 | increase in dead-cell fraction (THZ1 [6]; 0.01 µM): 0.193 | increase in dead-cell fraction (THZ1 [6]; 0.03162 µM): 0.338 | increase in dead-cell fraction (THZ1 [6]; 0.1 µM): 0.269 | increase in dead-cell fraction (THZ1 [6]; 0.3162 µM): 0.106 | increase in dead-cell fraction (THZ1 [6]; 1 µM): 0.13 | increase in dead-cell fraction (LEE011/Ribociclib; 0.001 µM): 0.0052 | increase in dead-cell fraction (LEE011/Ribociclib; 0.003162 µM): 0.0077 | increase in dead-cell fraction (LEE011/Ribociclib; 0.01 µM): 0.0145 | increase in dead-cell fraction (LEE011/Ribociclib; 0.03162 µM): 0.0159 | increase in dead-cell fraction (LEE011/Ribociclib; 0.1 µM): 0.0213 | increase in dead-cell fraction (LEE011/Ribociclib; 0.3162 µM): 0.0196 | increase in dead-cell fraction (LEE011/Ribociclib; 1 µM): 0.0239 | increase in dead-cell fraction (LEE011/Ribociclib; 3.162 µM): 0.0464 | increase in dead-cell fraction (LEE011/Ribociclib; 10 µM): 0.006 | increase in dead-cell fraction ([7]; 0.0001 µM): 0.0034 | increase in dead-cell fraction ([7]; 0.0003162 µM): 0.0047 | increase in dead-cell fraction ([7]; 0.001 µM): -0.0024 | increase in dead-cell fraction ([7]; 0.003162 µM): -0.0088 | increase in dead-cell fraction ([7]; 0.01 µM): -0.0098 | increase in dead-cell fraction ([7]; 0.03162 µM): 0.201 | increase in dead-cell fraction ([7]; 0.1 µM): 0.449 | increase in dead-cell fraction ([7]; 0.3162 µM): 0.477 | increase in dead-cell fraction ([7]; 1 µM): 0.49 | increase in dead-cell fraction (Flavopiridol [8]; 0.0001 µM): -0.0004 | increase in dead-cell fraction (Flavopiridol [8]; 0.0003162 µM): -0.0016 | increase in dead-cell fraction (Flavopiridol [8]; 0.001 µM): -0.0005 | increase in dead-cell fraction (Flavopiridol [8]; 0.003162 µM): -0.0011 | increase in dead-cell fraction (Flavopiridol [8]; 0.01 µM): 0.0056 | increase in dead-cell fraction (Flavopiridol [8]; 0.03162 µM): 0.0019 | increase in dead-cell fraction (Flavopiridol [8]; 0.1 µM): 0.0046 | increase in dead-cell fraction (Flavopiridol [8]; 0.3162 µM): 0.0223 | increase in dead-cell fraction (Flavopiridol [8]; 1 µM): 0.082
